According to US20100137449A1, “SUBSTITUTED 1,3-CYCLOPENTADIONE MULTI-TARGET PROTEIN KINASE MODULATORS OF CANCER, ANGIOGENESIS AND THE INFLAMMATORY PATHWAYS ASSOCIATED THEREWITH” (METAPROTEOMICS, LLC, priority 2007, published 2010):

Tests used:
Assay in all cases: KinaseProfiler Assay
IKKα(h) = target: T1, IKKα(h) (Homo sapiens, UniProt O15111)
T1 sequence (O15111 1-745): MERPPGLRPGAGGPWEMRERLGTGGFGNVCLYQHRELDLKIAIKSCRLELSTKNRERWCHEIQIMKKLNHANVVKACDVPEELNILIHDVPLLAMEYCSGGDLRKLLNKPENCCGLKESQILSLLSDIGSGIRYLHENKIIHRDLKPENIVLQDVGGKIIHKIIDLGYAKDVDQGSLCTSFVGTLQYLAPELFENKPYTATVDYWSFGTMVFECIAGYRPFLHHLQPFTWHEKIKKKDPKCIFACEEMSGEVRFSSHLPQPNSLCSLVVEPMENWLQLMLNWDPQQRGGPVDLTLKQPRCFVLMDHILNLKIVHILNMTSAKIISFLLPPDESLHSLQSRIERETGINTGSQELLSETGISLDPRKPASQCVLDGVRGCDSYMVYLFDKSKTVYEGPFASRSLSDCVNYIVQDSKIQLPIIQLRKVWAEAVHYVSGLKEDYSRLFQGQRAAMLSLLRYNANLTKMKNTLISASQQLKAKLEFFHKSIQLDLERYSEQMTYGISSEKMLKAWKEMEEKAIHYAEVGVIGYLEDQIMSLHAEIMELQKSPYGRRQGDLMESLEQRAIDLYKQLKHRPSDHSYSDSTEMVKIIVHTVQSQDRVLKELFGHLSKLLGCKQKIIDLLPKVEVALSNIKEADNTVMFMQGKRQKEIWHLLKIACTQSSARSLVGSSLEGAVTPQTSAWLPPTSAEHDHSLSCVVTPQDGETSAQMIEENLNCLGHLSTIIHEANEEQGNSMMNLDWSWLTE

CHK2(h) = CHK2(h) (Homo sapiens, UniProt O96017)
CHK2(h), sequence (O96017 whole entry): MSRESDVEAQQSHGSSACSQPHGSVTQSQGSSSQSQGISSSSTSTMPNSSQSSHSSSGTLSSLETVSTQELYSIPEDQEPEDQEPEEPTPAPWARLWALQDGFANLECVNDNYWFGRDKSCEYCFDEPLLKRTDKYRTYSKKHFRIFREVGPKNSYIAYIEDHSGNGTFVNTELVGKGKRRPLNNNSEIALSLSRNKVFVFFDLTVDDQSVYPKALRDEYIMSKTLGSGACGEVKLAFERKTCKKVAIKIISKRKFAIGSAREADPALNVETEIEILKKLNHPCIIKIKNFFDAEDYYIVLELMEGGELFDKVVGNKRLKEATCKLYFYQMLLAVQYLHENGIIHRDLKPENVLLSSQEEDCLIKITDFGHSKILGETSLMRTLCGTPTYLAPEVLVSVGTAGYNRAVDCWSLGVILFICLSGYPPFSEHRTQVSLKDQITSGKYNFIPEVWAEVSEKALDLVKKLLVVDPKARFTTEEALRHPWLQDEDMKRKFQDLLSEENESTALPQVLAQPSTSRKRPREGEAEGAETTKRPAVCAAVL

Arg(h) = Arg(h) (Homo sapiens, UniProt P42684)
Met(h) = Met(h) (Homo sapiens, UniProt P08581)
Met(h), sequence (P08581 25-1390): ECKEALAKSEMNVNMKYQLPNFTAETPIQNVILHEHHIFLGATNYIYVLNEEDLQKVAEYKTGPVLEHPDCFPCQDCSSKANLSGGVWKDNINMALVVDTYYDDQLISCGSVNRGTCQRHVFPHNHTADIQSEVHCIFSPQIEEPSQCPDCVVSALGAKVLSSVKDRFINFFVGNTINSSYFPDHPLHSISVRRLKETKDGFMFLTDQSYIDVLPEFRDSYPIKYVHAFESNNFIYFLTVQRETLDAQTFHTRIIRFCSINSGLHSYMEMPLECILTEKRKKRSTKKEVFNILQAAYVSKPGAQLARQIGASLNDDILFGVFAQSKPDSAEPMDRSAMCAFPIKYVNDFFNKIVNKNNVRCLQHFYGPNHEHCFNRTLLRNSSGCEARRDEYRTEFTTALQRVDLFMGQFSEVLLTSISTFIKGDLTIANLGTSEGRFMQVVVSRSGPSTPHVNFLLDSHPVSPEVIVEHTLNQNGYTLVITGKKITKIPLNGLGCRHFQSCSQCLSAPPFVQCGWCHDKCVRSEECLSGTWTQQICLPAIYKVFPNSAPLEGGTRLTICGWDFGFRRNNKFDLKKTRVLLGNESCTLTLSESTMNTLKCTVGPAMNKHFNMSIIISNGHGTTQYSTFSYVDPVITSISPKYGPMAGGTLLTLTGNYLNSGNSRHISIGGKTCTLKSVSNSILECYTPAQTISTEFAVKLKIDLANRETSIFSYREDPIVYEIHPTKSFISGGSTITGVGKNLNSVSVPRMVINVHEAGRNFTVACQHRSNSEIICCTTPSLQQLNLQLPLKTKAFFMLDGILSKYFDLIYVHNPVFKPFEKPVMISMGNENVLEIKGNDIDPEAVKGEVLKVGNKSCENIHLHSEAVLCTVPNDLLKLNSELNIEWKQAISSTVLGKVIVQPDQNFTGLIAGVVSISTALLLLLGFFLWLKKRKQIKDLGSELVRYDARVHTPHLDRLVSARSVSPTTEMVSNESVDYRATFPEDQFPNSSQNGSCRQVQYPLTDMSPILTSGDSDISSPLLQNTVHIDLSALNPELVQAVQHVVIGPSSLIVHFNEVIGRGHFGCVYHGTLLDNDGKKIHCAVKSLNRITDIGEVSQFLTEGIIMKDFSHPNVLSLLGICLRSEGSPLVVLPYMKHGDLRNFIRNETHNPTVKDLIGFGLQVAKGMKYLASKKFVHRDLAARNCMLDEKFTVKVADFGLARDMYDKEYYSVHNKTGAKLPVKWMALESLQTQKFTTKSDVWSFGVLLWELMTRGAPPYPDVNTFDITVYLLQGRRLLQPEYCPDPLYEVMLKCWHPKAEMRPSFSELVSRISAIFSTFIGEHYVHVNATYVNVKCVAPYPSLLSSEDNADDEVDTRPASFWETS

CK1γ3(h) = CK1γ3(h) (Homo sapiens, UniProt Q9Y6M4)
CK1γ3(h), sequence (Q9Y6M4 whole entry): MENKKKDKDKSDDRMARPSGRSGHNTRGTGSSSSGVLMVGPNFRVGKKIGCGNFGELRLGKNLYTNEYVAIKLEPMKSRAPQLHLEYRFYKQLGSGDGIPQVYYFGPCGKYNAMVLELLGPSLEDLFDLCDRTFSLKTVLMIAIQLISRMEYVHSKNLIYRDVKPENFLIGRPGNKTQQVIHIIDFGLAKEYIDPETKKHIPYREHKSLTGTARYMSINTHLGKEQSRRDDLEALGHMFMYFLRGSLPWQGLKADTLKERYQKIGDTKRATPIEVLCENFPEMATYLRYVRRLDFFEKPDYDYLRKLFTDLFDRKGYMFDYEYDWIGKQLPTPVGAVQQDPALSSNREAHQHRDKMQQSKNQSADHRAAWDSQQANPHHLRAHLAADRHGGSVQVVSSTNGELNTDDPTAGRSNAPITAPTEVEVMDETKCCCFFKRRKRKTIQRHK

CK1δ(h) = CK1δ(h) (Homo sapiens, UniProt P48730)
CK1δ(h), sequence (P48730 whole entry): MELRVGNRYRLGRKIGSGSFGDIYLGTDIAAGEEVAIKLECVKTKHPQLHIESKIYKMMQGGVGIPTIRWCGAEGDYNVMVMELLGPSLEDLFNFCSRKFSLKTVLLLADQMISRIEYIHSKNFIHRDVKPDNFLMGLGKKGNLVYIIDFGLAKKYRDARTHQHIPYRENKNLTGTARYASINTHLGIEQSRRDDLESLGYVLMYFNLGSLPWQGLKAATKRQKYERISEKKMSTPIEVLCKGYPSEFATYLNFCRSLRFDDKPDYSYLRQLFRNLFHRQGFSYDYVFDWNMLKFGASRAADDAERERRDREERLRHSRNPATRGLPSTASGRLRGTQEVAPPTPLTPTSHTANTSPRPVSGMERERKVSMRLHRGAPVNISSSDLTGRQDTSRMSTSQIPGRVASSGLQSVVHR

CaMKII(r) = target: CaMKII(r)
GRK7(h) = target: T2, GRK7(h) (Homo sapiens, UniProt Q8WTQ7)
T2 sequence (Q8WTQ7 1-553): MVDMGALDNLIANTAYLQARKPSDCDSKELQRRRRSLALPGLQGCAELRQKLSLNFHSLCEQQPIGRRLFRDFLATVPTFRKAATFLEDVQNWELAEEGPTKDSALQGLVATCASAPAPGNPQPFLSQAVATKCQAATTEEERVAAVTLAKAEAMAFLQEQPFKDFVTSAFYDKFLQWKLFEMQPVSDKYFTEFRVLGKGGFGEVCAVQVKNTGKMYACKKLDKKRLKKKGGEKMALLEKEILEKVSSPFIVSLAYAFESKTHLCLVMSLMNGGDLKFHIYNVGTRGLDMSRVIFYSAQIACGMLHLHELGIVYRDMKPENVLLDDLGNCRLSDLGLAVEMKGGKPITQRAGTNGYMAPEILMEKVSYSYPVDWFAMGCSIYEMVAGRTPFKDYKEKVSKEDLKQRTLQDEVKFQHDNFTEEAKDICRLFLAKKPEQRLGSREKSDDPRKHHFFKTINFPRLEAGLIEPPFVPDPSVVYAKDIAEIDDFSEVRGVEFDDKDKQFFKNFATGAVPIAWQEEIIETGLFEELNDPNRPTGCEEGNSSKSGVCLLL

PAR-1Bα(h) = PAR-1Bα(h) (Homo sapiens, UniProt Q7KZI7)
PAR-1Bα(h), sequence (Q7KZI7 1-725 isoform Q7KZI7-4): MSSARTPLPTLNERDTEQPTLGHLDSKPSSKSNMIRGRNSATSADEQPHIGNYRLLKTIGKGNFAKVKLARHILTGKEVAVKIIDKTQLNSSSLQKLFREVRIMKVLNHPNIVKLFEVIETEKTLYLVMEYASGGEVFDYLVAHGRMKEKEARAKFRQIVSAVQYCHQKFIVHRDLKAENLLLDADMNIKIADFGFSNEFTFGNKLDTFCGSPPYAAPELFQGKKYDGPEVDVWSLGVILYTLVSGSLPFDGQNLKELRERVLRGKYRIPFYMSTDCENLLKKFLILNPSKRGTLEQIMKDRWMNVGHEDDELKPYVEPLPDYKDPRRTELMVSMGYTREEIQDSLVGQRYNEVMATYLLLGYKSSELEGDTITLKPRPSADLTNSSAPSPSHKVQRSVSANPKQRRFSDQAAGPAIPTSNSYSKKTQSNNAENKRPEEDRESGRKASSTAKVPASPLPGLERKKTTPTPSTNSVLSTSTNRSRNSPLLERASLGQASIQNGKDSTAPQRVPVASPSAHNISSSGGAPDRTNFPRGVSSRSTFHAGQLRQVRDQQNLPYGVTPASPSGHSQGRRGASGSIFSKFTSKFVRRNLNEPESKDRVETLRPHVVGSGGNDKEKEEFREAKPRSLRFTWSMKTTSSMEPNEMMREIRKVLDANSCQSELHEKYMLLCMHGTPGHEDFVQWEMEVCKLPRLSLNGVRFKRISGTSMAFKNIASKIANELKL

ZIPK(h) = ZIPK(h) (Homo sapiens, UniProt O43293)
ZIPK(h), sequence (O43293 whole entry): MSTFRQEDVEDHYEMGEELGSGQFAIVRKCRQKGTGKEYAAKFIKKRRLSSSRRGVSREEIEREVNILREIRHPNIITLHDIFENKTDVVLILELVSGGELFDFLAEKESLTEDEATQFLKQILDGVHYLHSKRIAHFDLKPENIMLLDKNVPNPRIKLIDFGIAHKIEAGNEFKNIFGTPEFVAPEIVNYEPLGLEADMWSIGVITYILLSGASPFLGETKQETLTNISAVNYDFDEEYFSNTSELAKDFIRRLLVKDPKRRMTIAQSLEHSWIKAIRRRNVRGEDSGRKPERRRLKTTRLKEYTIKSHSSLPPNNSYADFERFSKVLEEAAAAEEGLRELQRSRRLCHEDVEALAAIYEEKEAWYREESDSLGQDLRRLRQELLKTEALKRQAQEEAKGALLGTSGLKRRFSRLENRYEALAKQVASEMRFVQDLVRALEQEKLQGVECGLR

## CC(C)CCC(=O)[C@]1(O)C(O)=C(C(=O)C(C)C)C(=O)[C@H]1CCC(C)C [TH2, tetrahydroiso-cohumulone]
IKKα(h); 1 μg/ml
  kinase inhibition: 99% of control
IKKα(h); 5 μg/ml
  kinase inhibition: 108% of control
IKKα(h); 25 μg/ml
  kinase inhibition: 114% of control
IKKα(h); 50 μg/ml
  kinase inhibition: 114% of control
IKKα(h); 100 μg/ml
  kinase inhibition: 120% of control
CHK2(h); 1 μg/ml
  kinase inhibition: 107% of control
CHK2(h); 5 μg/ml
  kinase inhibition: 107% of control
CHK2(h); 25 μg/ml
  kinase inhibition: 105% of control
CHK2(h); 50 μg/ml
  kinase inhibition: 108% of control
CHK2(h); 100 μg/ml
  kinase inhibition: 97% of control
Arg(h); 1 μg/ml
  kinase inhibition: 92% of control
Arg(h); 5 μg/ml
  kinase inhibition: 92% of control
Arg(h); 25 μg/ml
  kinase inhibition: 69% of control
Arg(h); 50 μg/ml
  kinase inhibition: 53% of control
Arg(h); 100 μg/ml
  kinase inhibition: 43% of control
Met(h); 1 μg/ml
  kinase inhibition: 114% of control
Met(h); 5 μg/ml
  kinase inhibition: 113% of control
Met(h); 25 μg/ml
  kinase inhibition: 97% of control
Met(h); 50 μg/ml
  kinase inhibition: 83% of control
Met(h); 100 μg/ml
  kinase inhibition: 61% of control
CK1γ3(h); 1 μg/ml
  kinase inhibition: 96% of control
CK1γ3(h); 5 μg/ml
  kinase inhibition: 91% of control
CK1γ3(h); 25 μg/ml
  kinase inhibition: 83% of control
CK1γ3(h); 50 μg/ml
  kinase inhibition: 43% of control
CK1γ3(h); 100 μg/ml
  kinase inhibition: 34% of control
CK1δ(h); 1 μg/ml
  kinase inhibition: 105% of control
CK1δ(h); 5 μg/ml
  kinase inhibition: 112% of control
CK1δ(h); 25 μg/ml
  kinase inhibition: 108% of control
CK1δ(h); 50 μg/ml
  kinase inhibition: 80% of control
CK1δ(h); 100 μg/ml
  kinase inhibition: 53% of control
CaMKII(r); 1 μg/ml
  kinase inhibition: 105% of control
CaMKII(r); 5 μg/ml
  kinase inhibition: 106% of control
CaMKII(r); 25 μg/ml
  kinase inhibition: 105% of control
CaMKII(r); 50 μg/ml
  kinase inhibition: 91% of control
CaMKII(r); 100 μg/ml
  kinase inhibition: 63% of control
GRK7(h); 1 μg/ml
  kinase inhibition: 110% of control
GRK7(h); 5 μg/ml
  kinase inhibition: 95% of control
GRK7(h); 25 μg/ml
  kinase inhibition: 102% of control
GRK7(h); 50 μg/ml
  kinase inhibition: 91% of control
GRK7(h); 100 μg/ml
  kinase inhibition: 99% of control
PAR-1Bα(h); 1 μg/ml
  kinase inhibition: 109% of control
PAR-1Bα(h); 5 μg/ml
  kinase inhibition: 113% of control
PAR-1Bα(h); 25 μg/ml
  kinase inhibition: 114% of control
PAR-1Bα(h); 50 μg/ml
  kinase inhibition: 116% of control
PAR-1Bα(h); 100 μg/ml
  kinase inhibition: 88% of control
ZIPK(h); 1 μg/ml
  kinase inhibition: 106% of control
ZIPK(h); 5 μg/ml
  kinase inhibition: 96% of control
ZIPK(h); 25 μg/ml
  kinase inhibition: 91% of control
ZIPK(h); 50 μg/ml
  kinase inhibition: 81% of control
ZIPK(h); 100 μg/ml
  kinase inhibition: 76% of control
